Reference: publication PMC11401973, “A novel small molecule ZYZ384 targeting SMYD3 for hepatocellular carcinoma via reducing H3K4 trimethylation of the Rac1 promoter” (MedComm, 2024)

What was measured:
SMYD3-GST tag protein = target: T1, SMYD3-GST tag protein (Homo sapiens, UniProt Q9H7B4); test: Biolayer interferometry (BLI) binding assay; conditions: steady-state analysis, read-out: equilibrium dissociation constant (K D)
T1 construct: purchased BPS Bioscience
T1 sequence (Q9H7B4 1-428): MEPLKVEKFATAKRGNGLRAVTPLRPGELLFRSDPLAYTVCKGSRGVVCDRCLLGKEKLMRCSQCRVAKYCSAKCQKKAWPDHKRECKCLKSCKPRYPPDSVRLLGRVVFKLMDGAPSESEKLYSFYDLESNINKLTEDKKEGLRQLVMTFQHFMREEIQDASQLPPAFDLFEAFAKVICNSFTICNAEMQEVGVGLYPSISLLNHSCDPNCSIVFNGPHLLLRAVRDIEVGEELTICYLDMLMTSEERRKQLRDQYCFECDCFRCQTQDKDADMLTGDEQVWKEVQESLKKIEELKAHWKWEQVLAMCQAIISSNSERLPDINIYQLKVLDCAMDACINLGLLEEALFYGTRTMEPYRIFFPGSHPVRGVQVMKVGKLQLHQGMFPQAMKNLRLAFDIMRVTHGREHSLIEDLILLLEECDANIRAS
Method: Next, to test the binding affinity of novel small molecules to SMYD3, BLI analyses were performed to determine the binding affinity of the two series of novel small molecules targeting SMYD3. SMYD3‐glutathione S‐transferase (GST)‐tagged protein was immobilized onto GST biosensors and used to determine the binding affinity of all respective small molecules and labeled probes. The binding and dissociation curves were generated in real time by applying the SMYD3‐GST label proteins onto the biosensor surfaces, followed by monitoring small molecules interaction across several concentrations. […] SMI1 has been renamed ZYZ384 and further tested for anticancer activities using both in vitro and in vivo models.
The SMYD3‐GST tag protein (BPS Bioscience) was immobilized onto a GST biosensor (Fortebio). ZYZ384 was tested across the concentrations range of 6.25–200 µM. After baseline setup using Phosphate buffer saline (PBS), the biosensor tips were immersed in wells containing ZYZ384 continuous diluent for 180 s to combine, followed by a 180‐s dissociation step. They calculated K D value with a 1:1 model in data analysis software 9.0 (Fortebio).

SMYD3 [1] = target: T2, SMYD3 (Homo sapiens, UniProt Q9H7B4); test: SMYD3 homogeneous assay kit (AlphaELISA); format: biochemical; conditions: different concentrations, 3 h incubation
T2 construct: purchased BPS Bioscience
T2 sequence (Q9H7B4 1-428): T1 sequence (Q9H7B4 1-428)
Method: The homogeneous assay kit was used to evaluate ZYZ384 inhibition activity on SMYD3. As we know, SMYD3 can catalyze the di‐ and tri‐methylation status of lysine4 of histone H3. This protein is also reported to drive the methylation of a lysine residue present in the protein […] (MAP3K2). Therefore, a series of different concentrations of ZYZ384 were incubated with SMYD3, and the activity was determined using the kit.
The commercial SMYD3 homogenous assay kit is designed to detect SMYD3 activity for screening and analytical applications. The SMYD3 homogenous assay kit is available in a convenient AlphaELISA format with GST‐labeled SMYD3 substrate, primary antibody, methylation detection buffer, and purification of SMYD3 for 384 enzyme reactions. The key to the SMYD3 homogenous assay is a particular antibody that recognizes methylated substrates. Using the kit, methyltransferase can be detected in three simple steps on a microtitration plate. First, samples containing the SMYD3 enzyme and ZYZ384 in different dosages were incubated in substrates for 3 h. Next, the receptor bead and primary antibody are added, the donor bead is added, and the Alpha counts are recorded.

A549 cells = test: MTT cell viability; format: cell-based; conditions: Homo sapiens, 24 h
Method: (§1) The cytotoxicity of ZYZ384 was determined across several different cancer cell lines. 3‐(4,5‐Dimethylthiazol‐2‐yl)‐2,5‐diphenyltetrazolium bromide (MTT) assay was used to assess cell viability. […] The cancer cell lines tested include human liver carcinoma cell HepG2, adenocarcinoma human alveolar basal epithelial cell A549, human colon carcinoma cell HTC116, human breast adenocarcinoma cell MDA‐MB‐231, and human pancreatic adenocarcinoma cell Miapaca2. […] In addition, ZYZ384 had low toxicity when tested in normal liver cells (LO2; Figure 3H).
(§2) Human HepG2, A549, HCT116, MDA‐MB‐231, and Miapaca2 cells were purchased from American Type Culture Collection (ATCC) and cultured in DMEM medium supplemented with 1% penicillin/streptomycin and 10% FBS at 37°C under 5% CO2 atmosphere and 95% air. Trypsin EDTA was used for cell passage.
(§3) Cell viability was assessed in several cancer cell lines and determined using the MTT assay in a 96‐well plate format. In brief, cells from […] medium (1 × 10^4/well) were inoculated in 96‐well plates and treated with ZYZ384. After 24 h of treatment, cell viability was determined by adding 1 mg/mL MTT‐containing medium for 4 h, followed by […] Dimethyl sulfoxide (DMSO) to dissolve formazan. The absorbance at 570 nm was recorded using a microplate ultraviolet/visible (UV/VIS) spectrophotometer (Tecan).

HCT116 cells = test: MTT cell viability; format: cell-based; conditions: Homo sapiens, HCT-116, 24 h
Method: as §1, §2, §3

HepG2 cells = test: MTT cell viability; format: cell-based; conditions: Homo sapiens, 24 h
Method: as §1, §2, §3

MDA-MB-231 cells = test: MTT cell viability; format: cell-based; conditions: Homo sapiens; MDA-MB-231, MTT, 24 h
Method: as §1, §2, §3

Miapaca2 cells = test: MTT cell viability; format: cell-based; conditions: Homo sapiens, MIA PaCa-2, 24 h
Method: as §1, §2, §3

Huh7 cells = test: MTT cell viability; format: cell-based; conditions: Homo sapiens, Huh-7, 24 h
LO2 cells = test: MTT cell viability, normal liver cells; format: cell-based, human
Method: as §1, §3

SMYD3 [2] = test: SMYD3 overexpression by transfection in LO2 cells and ZYZ384 treatment; format: cell-based, human; conditions: LO2 transfected with SMYD3 OE plasmid, 24 h treatment
Method: as §1
SMYD3 overexpression (SMYD3 OE) plasmid (Sino Biological) was mixed with lipofectamine 2000 for plasmid transfection. After transfection for 6 h, cells were exposed to the indicated ZYZ384 treatments for another 24 h.

C57BL/6 mice = test: Short-term toxicity study of C57BL/6 mice; format: in vivo; conditions: oral
Method: The toxicity of ZYZ384 (Figure 4A) was determined using C57BL/6 mice in pilot studies to assess the safety and the maximum‐tolerable dose (MTD) determined (as shown in Figure 4B). No toxicity was reported in C57BL/6 mice orally administrated with 2 g/kg of ZYZ384 one time, and a survival rate of 100% was reached after 2 weeks of treatment. No abnormalities in food and water consumption are reported during this time, nor any unusual spontaneous activities; a reported […] for ZYZ384 >2 g/kg is noted for the current work.
C57BL/6 mice were randomly divided into two groups (n = 10) to determine the short‐term toxicity of ZYZ384. Mice were given the maximum dose of 2 g/kg orally administered ZYZ384 once, while the control group was treated with the same volume of sterilized water. The health conditions of all mice were monitored for 2 weeks.

HepG2 tumors = test: HepG2 tumor-bearing nude mouse model (CDX); format: in vivo, nude mice
Method: The in vivo antitumor effect of ZYZ384 was assessed using a HepG2 tumor‐bearing nude mouse model (cell‐derived xenograft, CDX; Figure 4D).
The tumor‐bearing nude mice model was established by direct injection of hepG2 cells into the left armpit of nude mice. Animals were subsequently divided into five groups (n = 7). All compounds were applied via intragastric administration, and sorafenib was used as the positive control. Other groups, except the control group, were treated with different concentrations of ZYZ384. Body weight and tumor volume were monitored and recorded throughout the treatment period.

SMYD3 [3] = test: SMYD3 expression in tumor tissue (Western blot); format: in vivo, nude mice; conditions: ZYZ384 treatment groups versus control group
Method: (§4) In order to explore the antitumor mechanism of ZYZ384, the inhibitory effect of ZYZ384 on SMYD3 was determined in tumor tissues. […] In parallel, the expression of H3K4me3 was also noted to decrease in a similar pattern to that of SMYD3 (Figure 5B). The tumor tissues from control and high‐dosage treatment group animals were isolated. Since SMYD3 can tri‐methylated H3K4, ChIP‐seq analysis was used. This method allowed for annotating H3K4me3 occupancy on genes (Figure 5C). Global H3K4me3 occupancy decreased near annotation genes' transcription start site (TSS; Figure 5D). H3K4me3 is often enriched at activated promoters near TSSs. When combined with Kyoto Encyclopedia of Genes and Genomes (KEGG) pathway enrichment analysis (Figure 5E) and Gene Ontology (GO) functional enrichment analysis (Figure 5F), attention focus on the AKT pathway, cell proliferation, and migration functions. Visualized reads and signal strength of H3K4me3 for the Rac1 gene at the promoter region decreased following treatment with ZYZ384 (Figure 5G). […]
(§5) Isolated protein (30 µg) was obtained from tissues, separated on a sodium dodecyl sulfate‐polyacrylamide gel electrophoresis (SDS‐PAGE) gel, and transferred to a polyvinylidene fluoride membrane. […] The immunoreactive protein is visualized by enhanced chemiluminescence, and the signal intensity was detected and quantified using ImageJ.

H3K4me3 = H3K4me3 expression in tumor tissue (Western blot); format: in vivo, nude mice; conditions: ZYZ384 treatment groups versus control group
Method: as §4, §5

Water solubility = format: physicochemical
Source text: We were granted a Chinese patent (CN114246851A) to protect the structure and activity of ZYZ384, the effectiveness of ZYZ384 at high concentrations presents a challenge for future clinical use. […] Currently, we are trying to transform it into hydrochloride or culture cocrystallization to improve its solubility, bioavailability, and druggability. Drug resistance and combination therapy of ZYZ384 on other models will be gradually carried out in the follow‐up work. Although we developed a small molecule targeting SMYD3, we still need to figure out whether it is a selective inhibitor, and related research is to be continued.

Compound: COc1ccc(/N=C2/c3ccccc3/C(=N/c3ccc(OC)cc3)C2(C)C)cc1 [ZYZ384, (1Z,3Z)-N1,N3-bis(4-methoxyphenyl)-2,2-dimethyl-1H-indene-1,3(2H)-diimine]
- Kd (SMYD3-GST tag protein): 78 µM
- SMYD3 activity (alpha counts) (SMYD3 [1]): inhibits SMYD3 in a concentration‐dependent manner
- IC50 (A549 cells): 20.7 µM
- IC50 (HCT116 cells): 15.2 µM
- IC50 (HepG2 cells): 5.23 µM
- IC50 (MDA-MB-231 cells): 7.28 µM
- IC50 (Miapaca2 cells): 13.8 µM
- IC50 (Huh7 cells): 5.45 µM
- IC50 (LO2 cells; Homo sapiens, L02, LO2 normal liver cells, MTT, 24 h): 26.7 µM
- toxicity in normal liver cells (LO2 cells; LO2): low toxicity
- SMYD3 overexpression (SMYD3 [2]): suppressed
- LD5 (C57BL/6 mice): > 2 g/kg
- toxicity (C57BL/6 mice; 2 g/kg one time, 2 weeks observation): No toxicity
- survival rate (C57BL/6 mice; 2 g/kg, after 2 weeks): 100%
- body weight changes during treatment (HepG2 tumors; HepG2 tumor-bearing nude mice): no noticeable body weight changes
- growth suppression in HepG2 tumors (HepG2 tumors; nude mice, 100 mg/kg intragastric, versus sorafenib 100 mg/kg): better than that of sorafenib
- SMYD3 expression in tumor tissues (SMYD3 [3]): significantly diminished
- expression of H3K4me3 in tumor tissues (H3K4me3): decrease
- water solubility (Water solubility): poor water solubility
